Experimental data as given in ChEMBL document CHEMBL3763075, “Evaluation of phenylcyclopropylamine compounds by enzymatic assay of lysine-specific demethylase 2 in the presence of NPAC peptide” (Bioorg Med Chem Lett, 2016).
pIC50: −log10 of the molar value.

These molecules were tested against T1, Lysine-specific histone demethylase 2 (Homo sapiens, UniProt Q8NB78).
T1 sequence (Q8NB78 whole entry): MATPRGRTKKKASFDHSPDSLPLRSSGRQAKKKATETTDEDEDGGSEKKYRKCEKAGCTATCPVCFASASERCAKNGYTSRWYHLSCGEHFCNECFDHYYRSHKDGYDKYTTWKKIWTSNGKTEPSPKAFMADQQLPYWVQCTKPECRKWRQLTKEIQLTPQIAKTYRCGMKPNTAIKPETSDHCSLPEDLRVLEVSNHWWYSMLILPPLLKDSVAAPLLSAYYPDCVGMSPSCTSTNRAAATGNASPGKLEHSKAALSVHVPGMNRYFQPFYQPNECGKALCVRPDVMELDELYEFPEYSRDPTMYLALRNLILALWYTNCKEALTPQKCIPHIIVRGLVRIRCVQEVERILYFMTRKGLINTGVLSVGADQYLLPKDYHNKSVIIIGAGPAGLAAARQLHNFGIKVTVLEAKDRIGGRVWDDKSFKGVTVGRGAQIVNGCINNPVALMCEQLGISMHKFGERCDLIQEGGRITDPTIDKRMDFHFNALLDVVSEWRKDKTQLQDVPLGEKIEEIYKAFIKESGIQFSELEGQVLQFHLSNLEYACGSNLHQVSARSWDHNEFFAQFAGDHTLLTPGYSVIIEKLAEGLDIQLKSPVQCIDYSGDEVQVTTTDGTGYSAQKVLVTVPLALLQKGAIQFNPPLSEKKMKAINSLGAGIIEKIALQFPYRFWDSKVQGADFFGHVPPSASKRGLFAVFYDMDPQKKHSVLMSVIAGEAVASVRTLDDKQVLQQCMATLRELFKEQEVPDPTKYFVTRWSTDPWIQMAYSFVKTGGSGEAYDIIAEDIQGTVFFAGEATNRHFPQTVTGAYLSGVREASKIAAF
Description: Inhibition of recombinant human LSD2 using H3K4 peptide as substrate assessed as decrease in H3K4 demethylation after 1 hr by mass spectroscopic analysis

Row | pIC50 | SMILES
1 | 3.60 | O=C(N[C@@H](CCCCNC1CC1c1ccccc1)C(=O)NCc1ccc(Cl)cc1)c1ccc(-c2ccccc2)cc1 (stereo partly drawn)
2 | < 3.27 | O=C(N[C@@H](CCCCNC1CC1c1ccccc1)C(=O)NCc1cccc(C(F)(F)F)c1)c1ccc(-c2ccccc2)cc1 (stereo partly drawn)
3 | 3.64 | O=C(N[C@@H](CCCCNC1CC1c1ccccc1)C(=O)NCc1ccccc1)c1ccc(-c2ccccc2)cc1 (stereo partly drawn)
